Experimental data from patent publication US11812774B2, “Composition for browning inhibition and use of same” (SUNTORY HOLDINGS LIMITED, priority 2016, dated 2023).

Tests used:
[1] = Accelerated aging of epicatechin/glyoxal model solution, change in visible absorption spectrum; conditions: baicalin 0.5 g/L added to epicatechin 0.5 g/L + glyoxal 0.01 g/L; condition 3 (oxygen aeration, 123° C., 30 minutes); compared to no baicalin
Experimental: The preparation prepared above was subjected to an aging test under the following conditions, and then the visible absorption spectrum was measured. Condition 1: purged with nitrogen, stored at 4° C. for one hour Condition 2: stored at 121° C. for […] Condition 3: after oxygen aeration, stored at 123° C. for 30 minutes Baicalin (0.5 g/L) was added to a model solution obtained by mixing epicatechin (0.5 g/L) with glyoxal (0.01 g/L). The mixture was accelerated-aged under condition 3 (after oxygen aeration, stored at 123° C. for 30 minutes) in Test Example 2, and the amount of change in the visible absorption spectrum (ΔABU) before and after accelerated aging was calculated. FIG. 9 is a diagram showing changes in a visible absorption spectrum of the model solution by addition of baicalin.

[2] = Accelerated aging of baicalin/epicatechin/glyoxal mixtures, visible absorption spectrum and residual catechin by LC-MS; conditions: 15 minutes
Experimental: The following three kinds of solutions were prepared. B+G: a mixture of baicalin (0.5 g/L) and glyoxal (0.01 g/L) B+C+G: a mixture of baicalin (0.5 g/L), epicatechin (0.5 g/L), and glyoxal (0.01 g/L) C+G: a mixture of epicatechin (0.5 g/L) and glyoxal (0.01 g/L)
These solutions were kept in an autoclave at 121° C. for 15 minutes for accelerated aging. After accelerated aging, changes in color were checked by visual observation, and further, the visible absorption spectrum was measured.
FIG. 10(a) is a picture showing the appearance of the mixture of baicalin and glyoxal (B+G), the mixture of baicalin, epicatechin, and glyoxal (B+C+G), and the mixture of epicatechin and glyoxal (C+G) after accelerated aging; and FIG. 10(b) is a diagram showing visible absorption spectra of the same (FIG. 10(a): picture, (b): visible absorption spectra). In FIG. 10(b), the solid line indicates the mixture (B+G), the dashed line indicates the mixture (B+C+G), and the long dashed dotted line indicates the mixture (C+G).
Further, after accelerated aging, the amount of epicatechin (the amount of a residual catechin) in the mixture (B+C+G) and the mixture (C+G) was measured by LC-MS under the same conditions as in Test Example 3.

[3] = LC-MS analysis of accelerated-aged mixture of baicalin and glyoxal; conditions: baicalin 0.5 g/L + glyoxal 0.01 g/L, condition 3 (oxygen aeration, 123° C., 30 min)
Experimental: A mixture (green tea model) of epicatechin (EC) (0.5 g/L) and glyoxal (0.01 g/L) was accelerated-aged under condition 3 (after oxygen aeration, stored at 123° C. for 30 minutes) in Test Example 2, and analyzed by LC-MS under the following conditions. • LC-MS measurement conditions • LC • Column: 2.5 Cholester (Nacalai Tesque, Inc.) (100 mmL.×2.0 I.D.) • Mobile phase: • A: 0.1% formic acid/H2O • B: 0.1% formic acid/CH3CN • Gradient elution method • Time program (concentration of B solution is expressed in percent by volume): B 5% (0-0.5 min)→B 32% (20 min)→B 100% (25-27.5 min)→B 5% (27.51-30 min) • Flow rate: 0.25 mL/min • Column temperature: 40° C. • Sample injection volume: 2 μL • MS • Probe voltage: +4.5 kV (ESI positive mode) • −3.5 kV (ESI negative mode) • Nebulizer gas flow rate: 1.5 L/min • Drying gas flow rate: 20 L/min • DL temperature: 250° C. • DL voltage/Q-array voltage: default value • SCAN: m/z 100-800 (positive, negative) • SIM: A mixture of baicalin (0.5 g/L) and glyoxal (0.01 g/L) was accelerated-aged under condition 3 (after oxygen aeration, stored at 30 min at 123° C.) of Test Example 2, and analyzed by LC-MS. LC-MS measurement conditions are the same as those in Test Example 5. […]

[4] = Aldehyde-scavenging substance screening (Br value and Xt value, 96-well microplate); conditions: sample solution 600 ppm total phenol; epicatechin + glyoxal; 70° C., 16 hours; Br and Xt values relative to negative control; N=3
Experimental: Aldehyde-scavenging ability of a candidate substance was evaluated based on how much the candidate substance added to a mixture of glyoxal (model aldehyde) and epicatechin (reaction substrate) can inhibit browning. The negative control was distilled water. As positive control, fractions 6, 7, and 8 (mixtures containing baicalin and baicalin glycosides (compounds containing one to three glucose molecules bonded to a sugar moiety of baicalin)) obtained in Preparation 1 were used.
A glyoxal aqueous solution (39% (v/v)) and epicatechin were used as reagents. […]
Accelerated aging was performed at 70° C. for 16 hours, and the area under the spectrum at 400 to 600 nm and the absorbance at 487 nm were measured.
The amount of change in the visible absorbance before and after accelerated aging was calculated. […] The Br value indicates the amount of change Δ in the area under the spectrum at 400 to 600 nm, and the Xt value indicates the amount of change Δ in the absorbance at 487 nm. […] In FIG. 14, the solid line indicates the absorbance when a substance having an aldehyde-scavenging effect (a substance having a browning-inhibiting effect) was added, and the dashed line indicates the absorbance of the negative control. […]

[5] = Experimental: A sample solution was prepared by dissolving a candidate substance in water to adjust the total phenol amount derived from the candidate substance to 600 ppm. The total phenol amount was measured by the Folin-Denis method, using gallic acid as a standard substance.

| water solubility [5] | SMILES | amount of change in the visible absorption spectrum (ΔABU) before and after accelerated aging [1] | absorption at 487 nm after accelerated aging ([2]; B+C+G (baicalin 0.5 g/L, epicatechin 0.5 g/L, glyoxal 0.01 g/L) vs C+G, autoclave 121° C.) | amount of the residual catechin in a solution after accelerated aging ([2]; B+C+G vs C+G, 121° C., epicatechin by LC-MS) | production of compound having a xanthylium structure (brown) by reaction with glyoxal [3] | aldehyde-scavenging ability [4] |
| --- | --- | --- | --- | --- | --- | --- |
| – | O=C(O)[C@H]1O[C@@H](Oc2cc3oc(-c4ccccc4)cc(=O)c3c(O)c2O)[C@H](O)[C@@H](O)[C@@H]1O [baicalin] | significantly reduced | significantly reduces | increases | No compound having a xanthylium structure that exhibits brown was detected | – |
| poor water solubility | COc1ccc(-c2oc3c(CC=C(C)C)c(O[C@@H]4O[C@H](CO)[C@@H](O)[C@H](O)[C@H]4O)cc(O)c3c(=O)c2O[C@@H]2O[C@@H](C)[C@H](O)[C@@H](O)[C@H]2O)cc1 [icariin] | – | – | – | – | confirmed |
| – | O=C(O)[C@H]1O[C@@H](Oc2cc3oc(-c4ccc(O)cc4)cc(=O)c3c(O)c2O)[C@H](O)[C@@H](O)[C@@H]1O [scutellarin] | – | – | – | – | confirmed |
